Results from US12655150B2 (Cedilla Therapeutics, Inc., priority 2021, dated 2026).

Each molecule was assayed on NCI-H226 (assay: 72H TEAD Proliferation Assay (Cell Titer Glo 2.0)). Conditions: CTG 2.0, cell line not given (NCI-H226 responsive, NCI-H28 non-responsive).
Type: cell-based
Outline: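 Growth read-out is ATP luminescence (CellTiter-Glo 2.0) after 72 h compound exposure, corrected for no-CTG background and day-0 values, with GI50 from nonlinear regression. Sensitive line NCI-H226 (NF2-deficient); non-responsive NCI-H28 (NF2 wild type) distinguishes TEAD-driven from nonspecific growth inhibition.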

**Q.** `CC(C)(C)c1ccc(-c2nc3cc(S(C)(=N)=O)ccc3n3cccc23)cc1` (single isomer, unassigned) [I-208, (4-(4-(tert-Butyl)phenyl)pyrrolo[1,2-a]quinoxalin-7-yl)(imino)(methyl)-16-sulfanone] was tested. Which GI50 did it give?
**A.** 1 to 5 µM

Same assay, conditions: Homo sapiens, CTG 2.0, cell line not given (NCI-H226 responsive, NCI-H28 non-responsive)

**Q.** For `O=C(/C=C/CF)NCc1nc(-c2ccc(C(F)(F)F)cc2)c2cccnc2n1` [I-308, (E)-4-fluoro-N-((4-(4-(trifluoromethyl)phenyl)pyrido[2,3-d]pyrimidin-2-yl)methyl)but-2-enamide], which GI50 is on record?
**A.** ≤ 1 µM

Same assay, conditions: Homo sapiens, NCI-H226, 72 h, CTG 2.0, cell line not given (NCI-H226 responsive, NCI-H28 non-responsive)

**Q.** For `C=CC(=O)NCc1cn2ncnc2c(-c2ccc(C(F)(F)F)cc2)n1` [I-236, N-((8-(4-(Trifluoromethyl)phenyl)-[1,2,4]triazolo[1,5-a]pyrazin-6-yl)methyl)acrylamide], which GI50 is on record?
**A.** ≤ 1 µM

**Q.** `O=C(O)c1ccc2c(c1)nc(C1CCC1)c1nccn12` [I-71, 4-Cyclobutylimidazo[1,2-a]quinoxaline-7-carboxylic acid] was tested. Which GI50 did it give?
**A.** > 10 µM

**Q.** For `COc1cc(-c2ccc(C(F)(F)F)cc2)nc2cc(C(=O)N[C@@H](CO)C3CC3)ccc12` [I-344, (R)—N-(1-cyclopropyl-2-hydroxyethyl)-4-methoxy-2-(4-(trifluoromethyl)phenyl)quinoline-7-carboxamide], which GI50 is on record?
**A.** ≤ 1 µM

**Q.** Which GI50 does the source give for `O=C(O)c1ccc2c(c1)nc(N1CCCC(F)(F)C1)c1cccn12` [I-5, 4-(3,3-Difluoropiperidin-1-yl)pyrrolo[1,2-a]quinoxaline-7-carboxylic acid] here?
**A.** > 10 µM

**Q.** For `CC(C)(C)c1ccc(-c2nc3cc(C(=O)O)cc(CO)c3n3cccc23)cc1` [I-279, 4-(4-(tert-butyl)phenyl)-9-(hydroxymethyl)pyrrolo[1,2-a]quinoxaline-7-carboxylic acid], which GI50 is on record?
**A.** 1 to 5 µM

**Q.** Which GI50 does the source give for `C=CC(=O)Nc1ccc2ncc(-c3ccc(C(C)(C)C)cc3)nc2c1` [I-92, N-(3-(4-(tert-butyl)phenyl)quinoxalin-6-yl)acrylamide] here?
**A.** 1 to 5 µM

**Q.** `O=C(O)c1ccc2c(c1)nc(C1CCCCC1)c1nccn12` [I-68, 4-Cyclohexylimidazo[1,2-a]quinoxaline-7-carboxylic acid] was tested. Which GI50 did it give?
**A.** > 10 µM

**Q.** How did the GI50 turn out when `CC[C@H](CO)NC(=O)c1ccc2c(OC)cc(-c3ccc(C(F)(F)F)cc3OC)nc2c1` [I-342, (R)—N-(1-hydroxybutan-2-yl)-4-methoxy-2-(2-methoxy-4-(trifluoromethyl)phenyl)quinoline-7-carboxamide] was run?
**A.** 1 to 5 µM

**Q.** Which GI50 does the source give for `C=CC(=O)Nc1ccc2c(c1)nc(-c1ccc(C(F)(F)F)cn1)c1nccn12` [I-312, N-(4-(5-(trifluoromethyl)pyridin-2-yl)imidazo[1,2-a]quinoxalin-7-yl)acrylamide] here?
**A.** ≤ 1 µM

**Q.** For `N#Cc1cc(-c2ccc(C(F)(F)F)cc2)nc2cc(C(=O)O)ccc12` [I-401, 4-cyano-2-(4-(trifluoromethyl)phenyl)quinoline-7-carboxylic acid], which GI50 is on record?
**A.** 5 to 10 µM

**Q.** With `CC(C)(C)c1ccc(-c2nc3cc(C#N)ccc3n3ccnc23)cc1` [I-75, 4-(4-(tert-Butyl)phenyl)imidazo[1,2-a]quinoxaline-7-carbonitrile] as the molecule, how does the GI50 read?
**A.** > 10 µM

**Q.** `O=C(O)c1ccc2c(c1)nc(-c1ccccc1)c1nccn12` [I-63, 4-Phenylimidazo[1,2-a]quinoxaline-7-carboxylic acid] was tested. Which GI50 did it give?
**A.** > 10 µM

**Q.** For `CC(C)(C)c1ccc(-c2nc(O)cn3ccnc23)cc1` [I-148, 8-(4-(tert-Butyl)phenyl)imidazo[1,2-a]pyrazin-6-ol], which GI50 is on record?
**A.** > 10 µM

**Q.** How did the GI50 turn out when `C=CC(=O)Nc1cn2cccc2c(-c2ccc(C(F)(F)F)cc2)n1` [I-96, N-(1-(4-(trifluoromethyl)phenyl)pyrrolo[1,2-a]pyrazin-3-yl)acrylamide] was run?
**A.** ≤ 1 µM

**Q.** How did the GI50 turn out when `O=C(O)c1ccc2c(c1)nc(N1CCC3(CC1)CC3)c1ncnn12` [I-285, 4-(6-azaspiro[2.5]octan-6-yl)-[1,2,4]triazolo[1,5-a]quinoxaline-7-carboxylic acid] was run?
**A.** 1 to 5 µM

**Q.** How did the GI50 turn out when `O=C(O)c1ccc2c(c1)nc(N1CCC3(CCCCC3)CC1)c1cccn12` [I-30, 4-(3-Azaspiro[5.5]undecan-3-yl)pyrrolo[1,2-a]quinoxaline-7-carboxylic acid] was run?
**A.** 1 to 5 µM

**Q.** `C=CC(=O)NCc1nc(-c2ccc(C(F)(F)F)cc2)c2ccc(F)cc2n1` [I-445, N-((7-fluoro-4-(4-(trifluoromethyl)phenyl)quinazolin-2-yl)methyl)acrylamide] was tested. Which GI50 did it give?
**A.** ≤ 1 µM

**Q.** With `C#Cc1cc(-c2ccc(C(F)(F)F)cc2)nc2cc(C(=O)N[C@H](CC)CO)ccc12` [I-400, (R)-4-ethynyl-N-(1-hydroxybutan-2-yl)-2-(4-(trifluoromethyl)phenyl)quinoline-7-carboxamide] as the molecule, how does the GI50 read?
**A.** ≤ 1 µM

**Q.** Which GI50 does the source give for `O=C(/C=C/CF)NCc1cn2ccnc2c(-c2ccc(C(F)(F)F)cc2F)n1` [I-291, (E)-4-fluoro-N-((8-(2-fluoro-4-(trifluoromethyl)phenyl)imidazo[1,2-a]pyrazin-6-yl)methyl)but-2-enamide] here?
**A.** ≤ 1 µM

**Q.** With `C[C@H](CO)NC(=O)c1ccc2ccc(-c3ccc(C(F)(F)F)cc3)nc2c1` [I-427, (R)—N-(1-hydroxypropan-2-yl)-2-(4-(trifluoromethyl)phenyl)quinoline-7-carboxamide] as the molecule, how does the GI50 read?
**A.** 1 to 5 µM

**Q.** For `C=CC(=O)n1ccc2c(-c3ccc(C(C)(C)C)cc3)nccc21` [I-105, 1-(4-(4-(tert-Butyl)phenyl)-1H-pyrrolo[3,2-c]pyridin-1-yl)prop-2-en-1-one], which GI50 is on record?
**A.** 1 to 5 µM

**Q.** For `COc1cc(-c2ccc(C(F)(F)F)cc2)nc2cc(NC(=O)[C@@H](CO)c3ccccc3)ccc12` [I-376, (R)-3-Hydroxy-N-(4-methoxy-2-(4-(trifluoromethyl)phenyl)quinolin-7-yl)-2-phenylpropanamide], which GI50 is on record?
**A.** 1 to 5 µM

**Q.** For `COc1cc(-c2ccc(C(F)(F)F)cc2)nc2cc(C(=O)N3CCC3CO)ccc12` (single isomer, unassigned) [I-372, (2-(hydroxymethyl)azetidin-1-yl) (4-methoxy-2-(4-(trifluoromethyl)phenyl)quinolin-7-yl)methanone], which GI50 is on record?
**A.** 1 to 5 µM

**Q.** For `O=C(O)c1ccc2c(c1)nc(-c1ccc(C(F)(F)F)cc1)c1c(F)ccn12` [I-280, 3-fluoro-4-(4-(trifluoromethyl)phenyl)pyrrolo[1,2-a]quinoxaline-7-carboxylic acid], which GI50 is on record?
**A.** ≤ 1 µM

**Q.** For `C=CC(=O)NC(C)c1cn2ccnc2c(-c2ccc(C(F)(F)F)cc2)n1` (stereo not shown) [I-172, N-(1-(8-(4-(trifluoromethyl)phenyl)imidazo[1,2-a]pyrazin-6-yl)ethyl)acrylamide], which GI50 is on record?
**A.** ≤ 1 µM

**Q.** Which GI50 does the source give for `CC(C)(C)c1ccc(-c2nc3cc(C(=O)O)ccc3n3ccnc23)cc1` [I-58, 4-(4-(tert-Butyl)phenyl)imidazo[1,2-a]quinoxaline-7-carboxylic acid] here?
**A.** 5 to 10 µM

**Q.** Which GI50 does the source give for `CN(CCC(F)(F)F)c1nc2cc(C(=O)O)ccc2n2cccc12` [I-126, 4-(Methyl(3,3,3-trifluoropropyl)amino)pyrrolo[1,2-a]quinoxaline-7-carboxylic acid] here?
**A.** > 10 µM

**Q.** How did the GI50 turn out when `C=CC(=O)NCc1nc(-c2ccc(C(F)(F)F)cc2)n2cccnc12` [I-438, N-((6-(4-(trifluoromethyl)phenyl)imidazo[1,5-a]pyrimidin-8-yl)methyl)acrylamide] was run?
**A.** 1 to 5 µM

**Q.** How did the GI50 turn out when `COc1cc(-c2ccc(C(F)(F)F)cc2)nc2cc(C(=O)NCC(O)C(F)(F)F)ccc12` (stereo not shown) [I-382, 4-methoxy-N-(3,3,3-trifluoro-2-hydroxypropyl)-2-(4-(trifluoromethyl)phenyl)quinoline-7-carboxamide] was run?
**A.** 1 to 5 µM

**Q.** How did the GI50 turn out when `C=CC(=O)NCc1nc(-c2ccc(C(F)(F)F)cc2)c2[nH]ccc2n1` [I-450, N-((4-(4-(trifluoromethyl)phenyl)-5H-pyrrolo[3,2-d]pyrimidin-2-yl)methyl)acrylamide] was run?
**A.** 5 to 10 µM

**Q.** How did the GI50 turn out when `O=C(O)c1ccc2c(c1)nc(N1CCC(F)(F)C1)c1cccn12` [I-11, 4-(3,3-Difluoropyrrolidin-1-yl)pyrrolo[1,2-a]quinoxaline-7-carboxylic acid] was run?
**A.** > 10 µM

**Q.** For `CC[C@H](CO)NC(=O)c1ccc2c(OC)cc(-c3ccc(C(F)(F)F)cc3Cl)nc2c1` [I-341, (R)-2-(2-chloro-4-(trifluoromethyl)phenyl)-N-(1-hydroxybutan-2-yl)-4-methoxyquinoline-7-carboxamide], which GI50 is on record?
**A.** ≤ 1 µM

**Q.** With `C=CC(=O)NCc1cn2nccc2c(-c2ccc(C(F)(F)F)cc2)n1` [I-316, N-((4-(4-(trifluoromethyl)phenyl)pyrazolo[1,5-a]pyrazin-6-yl)methyl)acrylamide] as the molecule, how does the GI50 read?
**A.** ≤ 1 µM

**Q.** How did the GI50 turn out when `O=C(O)c1cc(CO)c2c(c1)nc(N1CCC3(CC1)CC3)c1cccn12` [I-278, 9-(hydroxymethyl)-4-(6-azaspiro[2.5]octan-6-yl)pyrrolo[1,2-a]quinoxaline-7-carboxylic acid] was run?
**A.** 1 to 5 µM

**Q.** `C=CC(=O)NCc1cn2cccc2c(-c2ccc(C(F)(F)F)cn2)n1` [I-314, N-((1-(5-(Trifluoromethyl)pyridin-2-yl)pyrrolo[1,2-a]pyrazin-3-yl)methyl)acrylamide] was tested. Which GI50 did it give?
**A.** ≤ 1 µM

**Q.** For `CC(C)(C)c1ccc(-c2nc3cc(C(=O)O)cc(F)c3n3ccnc23)cc1` [I-72, 4-(4-(tert-Butyl)phenyl)-9-fluoroimidazo[1,2-a]quinoxaline-7-carboxylic acid], which GI50 is on record?
**A.** 5 to 10 µM

**Q.** How did the GI50 turn out when `CC(C)(C)c1ccc(-c2nc3cc(C(=O)O)ccc3n3cccc23)c(F)c1` [I-49, 4-(4-(tert-Butyl)-2-fluorophenyl)pyrrolo[1,2-a]quinoxaline-7-carboxylic acid] was run?
**A.** > 10 µM

**Q.** With `COc1cc(-c2ccc(C(F)(F)F)cc2)nc2cc(C(=O)NC(C)(C)CO)ccc12` [I-352, N-(1-hydroxy-2-methylpropan-2-yl)-4-methoxy-2-(4-(trifluoromethyl)phenyl)quinoline-7-carboxamide] as the molecule, how does the GI50 read?
**A.** 1 to 5 µM

**Q.** How did the GI50 turn out when `C=CC(=O)NCc1nc(-c2ccc(C(F)(F)F)cc2)c2ccccc2n1` [I-167, N-((4-(4-(trifluoromethyl)phenyl)quinazolin-2-yl)methyl)acrylamide] was run?
**A.** ≤ 1 µM

**Q.** With `C=CC(=O)NCc1nc(-c2ccc(C(F)(F)F)cc2)c2ncccc2n1` [I-305, N-((4-(4-(trifluoromethyl)phenyl)pyrido[3,2-d]pyrimidin-2-yl)methyl)acrylamide] as the molecule, how does the GI50 read?
**A.** ≤ 1 µM

**Q.** For `COc1cc(-c2ccc(C(F)(F)F)cc2)nc2cc(S(N)(=O)=O)ccc12` [I-416, 4-Methoxy-2-(4-(trifluoromethyl)phenyl)quinoline-7-sulfonamide], which GI50 is on record?
**A.** 1 to 5 µM
